Measured values published in patent US20240270762A1, “PENICILLIN-BINDING PROTEIN INHIBITORS” (priority 2021, published 2024).
≈ marks a conversion by molar mass, not a printed value.

Assays:
[1] = molecular target: T1, PBP3 from Escherichia coli (K-12) (Escherichia coli, UniProt P0AD68); assay: Bocillin-FL fluorescence polarization competition binding, E. coli PBP3
T1 construct: made in house
Outline: (§1)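 Purified PBP was preincubated with inhibitor (E. coli PBP3 1.5 μM, 30 min; P. aeruginosa PBP3 0.75 μM, A. baumannii PBP3 0.2 μM and PBP1a 1 μM, 15 min), then Bocillin-FL (0.1 μM; 0.05 μM for PBP1a) added and FP read up to 60 min. EC50 = 50% loss of bound probe.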

[2] = tested on: N. gonorrhoeae WHO G; assay: Liquid broth MIC in Fastidious broth; conditions: Neisseria gonorrhoeae, read-out: Minimum Inhibitory Concentration (MIC), N. gonorrhoeae WHO G
[3] = molecular target: T2, PBP3 from Acinetobacter baumannii (ATCC 19606) (Acinetobacter baumannii, UniProt A0ABX6CK25); assay: Bocillin-FL fluorescence polarization competition binding, A. baumannii PBP3; conditions: fluorescence polarization competition binding assay using Bocillin-FL; read-out: A. baumannii PBP3 Potency
T2 sequence (A0ABX6CK25 64-610): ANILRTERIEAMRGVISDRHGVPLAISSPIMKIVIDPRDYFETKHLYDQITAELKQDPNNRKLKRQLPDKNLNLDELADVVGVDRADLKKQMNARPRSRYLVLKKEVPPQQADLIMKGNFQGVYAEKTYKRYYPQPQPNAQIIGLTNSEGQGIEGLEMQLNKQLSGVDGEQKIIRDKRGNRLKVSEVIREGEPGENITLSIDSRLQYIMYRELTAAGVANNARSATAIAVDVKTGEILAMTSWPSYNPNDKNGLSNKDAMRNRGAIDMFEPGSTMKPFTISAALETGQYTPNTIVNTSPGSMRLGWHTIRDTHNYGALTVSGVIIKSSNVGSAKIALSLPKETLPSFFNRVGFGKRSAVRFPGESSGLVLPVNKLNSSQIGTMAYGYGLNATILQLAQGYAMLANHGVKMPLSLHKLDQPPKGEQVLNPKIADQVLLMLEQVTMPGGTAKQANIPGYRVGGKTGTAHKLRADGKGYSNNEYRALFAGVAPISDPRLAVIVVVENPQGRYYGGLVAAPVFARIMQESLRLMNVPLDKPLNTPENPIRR
Outline: as §1

T1 sequence (P0AD68 1-577): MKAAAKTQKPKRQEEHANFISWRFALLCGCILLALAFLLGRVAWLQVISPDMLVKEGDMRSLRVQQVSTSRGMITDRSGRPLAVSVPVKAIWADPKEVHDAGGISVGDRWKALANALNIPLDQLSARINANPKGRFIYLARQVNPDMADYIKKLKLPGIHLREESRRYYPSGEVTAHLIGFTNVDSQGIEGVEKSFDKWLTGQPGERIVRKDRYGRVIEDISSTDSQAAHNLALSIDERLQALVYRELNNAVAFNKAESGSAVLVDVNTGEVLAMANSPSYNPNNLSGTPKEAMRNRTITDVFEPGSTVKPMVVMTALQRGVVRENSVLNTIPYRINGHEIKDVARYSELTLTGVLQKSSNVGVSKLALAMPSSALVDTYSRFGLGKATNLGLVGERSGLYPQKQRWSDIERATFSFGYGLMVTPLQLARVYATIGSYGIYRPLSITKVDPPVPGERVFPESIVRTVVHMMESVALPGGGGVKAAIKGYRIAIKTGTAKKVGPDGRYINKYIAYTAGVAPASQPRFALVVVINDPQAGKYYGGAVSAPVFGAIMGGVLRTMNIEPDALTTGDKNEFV

O=C(O)c1cccc2c1OB(O)[C@@H](NC(=O)C(NC(=O)N1CCN(CC(F)(F)F)C(=O)C1=O)c1ccc(P(=O)(O)O)cc1)C2 (stereo partly drawn) [Example 4, (3R)-3-(2-(2,3-dioxo-4-(2,2,2-trifluoroethyl)piperazine-1-carboxamido)-2-(4-phosphonophenyl)acetamido)-2-hydroxy-3,4-dihydro-2H-benzo[e][1,2]oxaborinine-8-carboxylic acid]
EC50 [1]: < 10 µM | MIC [2]: < 1 µg/mL

NCCN1CCN(C(=O)NC(C(=O)N[C@H]2Cc3cccc(C(=O)O)c3OB2O)c2ccc(P(=O)(O)O)cc2)C(=O)C1=O (stereo partly drawn) [Example 3, (3R)-3-(2-(4-(2-aminoethyl)-2,3-dioxopiperazine-1-carboxamido)-2-(4-phosphonophenyl)acetamido)-2-hydroxy-3,4-dihydro-2H-benzo[e][1,2]oxaborinine-8-carboxylic acid]
EC50 [1]: 10 to 50 µM | MIC [2]: < 1 µg/mL

CCN1CCN(C(=O)NC(C(=O)N[C@H]2Cc3cccc(C(=O)O)c3OB2O)c2ccc(P(=O)(O)O)cc2F)C(=O)C1=O (stereo partly drawn) [Example 1, (3R)-3-(2-(4-ethyl-2,3-dioxopiperazine-1-carboxamido)-2-(2-fluoro-4-phosphonophenyl)acetamido)-2-hydroxy-3,4-dihydro-2H-benzo[e][1,2]oxaborinine-8-carboxylic acid]
EC50 [1]: < 10 µM | MIC [2]: < 1 µg/mL

CS(=O)(=O)N1CCN(C(=O)N[C@@H](C(=O)N[C@H]2Cc3cccc(C(=O)O)c3OB2O)c2ccc(P(=O)(O)O)cc2)C1=O (single isomer, unassigned) [Example 6]
EC50 [1]: < 10 µM | MIC [2]: < 1 µg/mL | IC50 [3]: < 10 µM

O=C(NCCCN1CCN(C(=O)N[C@@H](C(=O)N[C@H]2Cc3ccc(F)c(C(=O)O)c3OB2O)c2cc(F)c(O)c(O)c2Cl)C(=O)C1=O)c1ccc(O)cc1Cl (single isomer, unassigned) [Example 471]
EC50 [1]: < 10 µM | IC50 [3]: < 10 µM

O=C(NCCCN1CCN(C(=O)N[C@@H](C(=O)N[C@H]2Cc3ccc(F)c(C(=O)O)c3OB2O)c2cc(F)c(O)c(O)c2Cl)C(=O)C1=O)c1cc(F)nc(F)c1 (racemic) [Example 401]
EC50 [1]: < 10 µM | IC50 [3]: < 10 µM

O=C(NCCCN1CCN(C(=O)N[C@@H](C(=O)N[C@H]2Cc3ccc(F)c(C(=O)O)c3OB2O)c2cc(F)c(O)c(O)c2Cl)C(=O)C1=O)c1cc(F)c(O)cc1F (single isomer, unassigned) [Example 473]
EC50 [1]: < 10 µM | IC50 [3]: < 10 µM

CCN1CCN(C(=O)NC(C(=O)N[C@H]2Cc3cccc(C(=O)O)c3OB2O)c2cc(P(=O)(O)O)ccc2F)C(=O)C1=O (stereo partly drawn) [Example 2, (3R)-3-(2-(4-ethyl-2,3-dioxopiperazine-1-carboxamido)-2-(2-fluoro-5-phosphonophenyl)acetamido)-2-hydroxy-3,4-dihydro-2H-benzo[e][1,2]oxaborinine-8-carboxylic acid]
EC50 [1]: < 10 µM | MIC [2]: 1 to 2 µg/mL (≈ 1.65 to 3.3 µM)

O=C(NCCCN1CCN(C(=O)NC(C(=O)N[C@H]2Cc3ccc(F)c(C(=O)O)c3OB2O)c2cc(F)c(O)c(O)c2Cl)C(=O)C1=O)c1c(F)ccc(O)c1Cl (stereo partly drawn) [Example 414, (3R)-3-(2-(2-chloro-5-fluoro-3,4-dihydroxyphenyl)-2-(4-(3-(2-chloro-6-fluoro-3-hydroxybenzamido)propyl)-2,3-dioxopiperazine-1-carboxamido)acetamido)-7-fluoro-2-hydroxy-3,4-dihydro-2H-benzo[e][1,2]oxaborinine-8-carboxylic acid]
EC50 [1]: < 10 µM | IC50 [3]: < 10 µM

O=C(NCCCN1CCN(C(=O)NC(C(=O)N[C@H]2Cc3ccc(F)c(C(=O)O)c3OB2O)c2cc(F)c(O)c(O)c2Cl)C(=O)C1=O)c1ccc(F)c(O)c1 (stereo partly drawn) [Example 409, (3R)-3-(2-(2-chloro-5-fluoro-3,4-dihydroxyphenyl)-2-(4-(3-(4-fluoro-3-hydroxybenzamido)propyl)-2,3-dioxopiperazine-1-carboxamido)acetamido)-7-fluoro-2-hydroxy-3,4-dihydro-2H-benzo[e][1,2]oxaborinine-8-carboxylic acid]
EC50 [1]: < 10 µM | IC50 [3]: < 10 µM

O=C(NCCCN1CCN(C(=O)NC(C(=O)N[C@H]2Cc3ccc(F)c(C(=O)O)c3OB2O)c2cc(F)c(O)c(O)c2Cl)C(=O)C1=O)c1ccc(O)c(F)c1Cl (stereo partly drawn) [Example 418, (3R)-3-(2-(4-(3-(2-chloro-3-fluoro-4-hydroxybenzamido)propyl)-2,3-dioxopiperazine-1-carboxamido)-2-(2-chloro-5-fluoro-3,4-dihydroxyphenyl)acetamido)-7-fluoro-2-hydroxy-3,4-dihydro-2H-benzo[e][1,2]oxaborinine-8-carboxylic acid]
EC50 [1]: < 10 µM | IC50 [3]: < 10 µM

O=C(NCCCN1CCN(C(=O)NC(C(=O)N[C@H]2Cc3ccc(F)c(C(=O)O)c3OB2O)c2cc(F)c(O)c(O)c2Cl)C(=O)C1=O)c1cccc(O)c1F (stereo partly drawn) [Example 406, (3R)-3-(2-(2-chloro-5-fluoro-3,4-dihydroxyphenyl)-2-(4.-(3-(2-fluoro-3-hydroxybenzamido)propyl)-2,3-dioxopiperazine-1-carboxamido)acetamido)-7-fluoro-2-hydroxy-3,4-dihydro-2H-benzo[e][1,2]oxaborinine-8-carboxylic acid]
EC50 [1]: < 10 µM | IC50 [3]: < 10 µM

O=C(O)c1c(F)ccc2c1OB(O)[C@@H](NC(=O)C(NC(=O)N1CCN(C3CCN(C(=O)c4cc(O)cc(O)c4)CC3)C(=O)C1=O)c1cc(F)c(O)c(O)c1Cl)C2 (stereo partly drawn) [Example 309, (3R)-3-(2-(2-chloro-5-fluoro-3,4-dihydroxyphenyl)-2-(4-(1-(3,5-dihydroxybenzoyl)piperidin-4-yl)-2,3-dioxopiperazine-1-carboxamido)acetamido)-7-fluoro-2-hydroxy-3,4-dihydro-2H-benzo[e][1,2]oxaborinine-8-carboxylic acid]
EC50 [1]: < 10 µM | IC50 [3]: < 10 µM

O=C(NCCCN1CCN(C(=O)NC(C(=O)N[C@H]2Cc3ccc(F)c(C(=O)O)c3OB2O)c2cc(F)c(O)c(O)c2Cl)C(=O)C1=O)c1cc(O)c(F)c(O)c1 (stereo partly drawn) [Example 416, (3R)-3-(2-(2-chloro-5-fluoro-3,4-dihydroxyphenyl)-2-(4-(3-(4-fluoro-3,5-dihydroxybenzamido)propyl)-2,3-dioxopiperazine-1-carboxamido)acetamido)-7-fluoro-2-hydroxy-3,4-dihydro-2H-benzo[e][1,2]oxaborinine-8-carboxylic acid]
EC50 [1]: < 10 µM | IC50 [3]: < 10 µM

CS(=O)(=O)N1CCN(C(=O)N[C@H](C(=O)N[C@H]2Cc3cccc(C(=O)O)c3OB2O)c2ccc(P(=O)(O)O)cc2)C1=O (single isomer, unassigned) [Example 5]
EC50 [1]: 50 to 250 µM | MIC [2]: < 1 µg/mL
